Assay results published in US4820694A, “Modifications of 3-O-demethylmycinose in macrocin and lactenocin” (priority 1986, dated 1989).
In brackets after ≈: the same amount, converted by molar mass. Where two headings read alike, the source gives them in different places.

Key:
[1] = system: Haemophilus influenzae 76; test: standard agar-dilution MIC assay; format: cell-based; details: agar-dilution; Ampicillin-resistant strain
Method: (§1) The MIC's in Table III were determined by standard agar-dilution assays. The MIC's in Table IV were obtained using conventional brothdilution microtiter tests.

[2] = system: Haemophilus influenzae C.L.; test: standard agar-dilution MIC assay; format: cell-based
Method: as §1

[3] = system: Klebsiella pneumoniae X68; test: standard agar-dilution MIC assay; format: cell-based; details: agar-dilution
Method: as §1

[4] = system: Pseudomonas aeruginosa X239; test: standard agar-dilution MIC assay; format: cell-based; details: agar-dilution
Method: as §1

[5] = system: Staphylococcus aureus V41; test: standard agar-dilution MIC assay; format: cell-based; details: agar-dilution, Penicillin-resistant strain
Method: as §1

[6] = system: Staphylococcus aureus X1.1; test: standard agar-dilution MIC assay; format: cell-based
Method: as §1

[7] = system: Staphylococcus aureus X400; test: standard agar-dilution MIC assay; format: cell-based; details: agar-dilution, Methicillin-resistant strain
Method: as §1

[8] = system: Staphylococcus epidermidis 222; test: standard agar-dilution MIC assay; format: cell-based; details: agar-dilution
Method: as §1

[9] = system: Staphylococcus epidermidis EPI1; test: standard agar-dilution MIC assay; format: cell-based
Method: as §1

[10] = system: Streptococcus Group D 9960; test: standard agar-dilution MIC assay; format: cell-based
Method: as §1

[11] = system: Streptococcus Group D X66; test: standard agar-dilution MIC assay; format: cell-based
Method: as §1

[12] = system: Streptococcus pyogenes C203; test: standard agar-dilution MIC assay; format: cell-based
Method: as §1

[13] = system: Staphylococcus aureus S13E; test: microbe, parasite or virus in culture; format: cell-based
Method: as §1

[14] = system: Streptococcus pneumoniae Park I; test: microbe, parasite or virus in culture; format: cell-based
Method: as §1

[15] = system: Bordetella bronchiseptica; test: broth-dilution microtiter MIC test; format: cell-based; details: broth-dilution microtiter
Method: as §1

[16] = system: Mycoplasma gallisepticum 15E; test: broth-dilution microtiter MIC test; format: cell-based
Method: as §1

[17] = system: Mycoplasma gallisepticum 29C; test: broth-dilution microtiter MIC test; format: cell-based
Method: as §1

[18] = system: Mycoplasma gallisepticum 36H; test: broth-dilution microtiter MIC test; format: cell-based
Method: as §1

[19] = system: Mycoplasma hyopneumoniae S5972; test: broth-dilution microtiter MIC test; format: cell-based
Method: as §1

Mycoplasma hyorhinis 29E = test: broth-dilution microtiter MIC test; format: cell-based; details: broth-dilution microtiter
Method: as §1

Mycoplasma synoviae 40A = test: broth-dilution microtiter MIC test; format: cell-based; details: broth-dilution microtiter
Method: as §1

[20] = system: Pasteurella hemolytica 22C; test: broth-dilution microtiter MIC test; format: cell-based
Method: as §1

[21] = system: Pasteurella hemolytica 23C; test: broth-dilution microtiter MIC test; format: cell-based
Method: as §1

[22] = system: Pasteurella hemolytica 41D; test: broth-dilution microtiter MIC test; format: cell-based
Method: as §1

[23] = system: Pasteurella multocida 17E; test: broth-dilution microtiter MIC test; format: cell-based
Method: as §1

[24] = system: Pasteurella multocida 22A; test: broth-dilution microtiter MIC test; format: cell-based
Method: as §1

[25] = system: Pasteurella multocida 40G; test: broth-dilution microtiter MIC test; format: cell-based
Method: as §1

[26] = system: Pasteurella multocida 60A; test: broth-dilution microtiter MIC test; format: cell-based
Method: as §1

[27] = system: Pasteurella multocida 68C; test: broth-dilution microtiter MIC test; format: cell-based
Method: as §1

[28] = system: Staphylococcus aureus 19C; test: broth-dilution microtiter MIC test; format: cell-based
Method: as §1

Streptococcus sp. 19F = test: broth-dilution microtiter MIC test; format: cell-based
Method: as §1

Escherichia coli EC14 = test: standard agar-dilution MIC assay; format: cell-based; details: agar-dilution, read-out: MIC
Method: as §1

[29] = system: Streptococcus Group D 2041; test: standard agar-dilution MIC assay; format: cell-based; details: GROUPD2041
Method: as §1

[30] = system: Streptococcus pyogenes C203; test: protection of mice experimentally infected with S. pyogenes C203; format: in vivo; details: mice, mg/kg × 2, doses given 1 and 4 hours postinfection, read-out: ED50
In short: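 Activity is given as ED50, the mg/kg dose (×2) protecting half of the mice infected with S. pyogenes C203. Compound was dosed 1 and 4 h after infection.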

With `CC[C@H]1OC(=O)C[C@@H](O)[C@H](C)[C@@H](O[C@@H]2O[C@H](C)[C@@H](O)[C@H](N(C)C)[C@H]2O)[C@@H](CC=O)C[C@@H](C)C(=O)/C=C/C(C)=C/[C@@H]1CO[C@@H]1O[C@H](C)[C@@H](OC(=O)COc2ccccc2)[C@@H](O)[C@H]1OC` [Compound 34, 4"-O-Phenoxyacetyl-lactenocin] the MIC [1] was 4 µg/mL (≈ 4.48 µM), the MIC ([2]; agar-dilution, Ampicillin-sensitive strain) was 4 µg/mL (≈ 4.48 µM) and the MIC [3] was “-- (Not active at 128 mcg/mL, the highest level tested)”. For the same compound, the MIC [4] was “-- (Not active at 128 mcg/mL, the highest level tested)”, the MIC [5] was 1 µg/mL (≈ 1.12 µM) and the MIC ([6]; agar-dilution) was 1 µg/mL (≈ 1.12 µM). It also gave an MIC [7] of 1 µg/mL (≈ 1.12 µM), an MIC [8] of 0.5 µg/mL (≈ 0.561 µM) and an MIC ([9]; agar-dilution) of 1 µg/mL (≈ 1.12 µM). It also gave an MIC [10] of 1 µg/mL (≈ 1.12 µM), an MIC [11] of 1 µg/mL (≈ 1.12 µM) and an MIC ([12]; agar-dilution) of 0.12 µg/mL (≈ 0.135 µM). For the same compound, the MIC ([13]; agar-dilution) was 1 µg/mL (≈ 1.12 µM), the MIC ([14]; agar-dilution) was 0.12 µg/mL (≈ 0.135 µM) and the MIC [15] was 50 µg/mL (≈ 56.1 µM). The MIC ([16]; broth-dilution microtiter) was 25 µg/mL (≈ 28 µM), the MIC ([17]; broth-dilution microtiter) was no more than 0.048 µg/mL and the MIC ([18]; broth-dilution microtiter) was 12.5 µg/mL (≈ 14 µM). The MIC ([19]; broth-dilution microtiter) was 0.097 µg/mL (≈ 0.109 µM), the MIC (Mycoplasma hyorhinis 29E) was 6.25 µg/mL (≈ 7.01 µM) and the MIC (Mycoplasma synoviae 40A) was 0.097 µg/mL (≈ 0.109 µM). The MIC ([20]; broth-dilution microtiter) was 25 µg/mL (≈ 28 µM), the MIC ([21]; broth-dilution microtiter) was 25 µg/mL (≈ 28 µM) and the MIC ([22]; broth-dilution microtiter) was 25 µg/mL (≈ 28 µM). The MIC ([23]; broth-dilution microtiter, Bovine isolate) was 6.25 µg/mL (≈ 7.01 µM), the MIC ([24]; broth-dilution microtiter) was 12.5 µg/mL (≈ 14 µM) and the MIC ([25]; broth-dilution microtiter) was 12.5 µg/mL (≈ 14 µM). For the same compound, the MIC ([26]; broth-dilution microtiter, Avian isolate) was 12.5 µg/mL (≈ 14 µM), the MIC ([27]; broth-dilution microtiter) was 12.5 µg/mL (≈ 14 µM) and the MIC ([28]; broth-dilution microtiter) was 0.78 µg/mL (≈ 0.874 µM). It also gave an MIC (Streptococcus sp. 19F; broth-dilution microtiter) of 1.56 µg/mL (≈ 1.75 µM).
With `CCC1OC(=O)CC(O)C(C)C(OC2OC(C)C(O)C(N(C)C)C2O)C(CCOc2ccccc2)CC(C)C(=O)C=CC(C)=CC1COC1OC(C)C=CC1OC` (centres unmarked) [Compound 43, 3",4"-Di(dehydrodeoxy)-20-DH-20-O-phenyl-lactenocin] the MIC (Escherichia coli EC14) was greater than 128 µg/mL, the MIC ([2]; Haemophilus influenzae) was 32 µg/mL (≈ 39.9 µM) and the MIC ([3]; Klebsiella pneumoniae, X68, read-out: MIC) was greater than 128 µg/mL. For the same compound, the MIC ([4]; Pseudomonas aeruginosa, X239, read-out: MIC) was greater than 128 µg/mL, the MIC ([5]; Staphylococcus aureus, V41, read-out: MIC) was 0.25 µg/mL (≈ 0.312 µM) and the MIC ([6]; Staphylococcus aureus, X1.1) was 0.25 µg/mL (≈ 0.312 µM). For the same compound, the MIC ([7]; Staphylococcus aureus, X400, read-out: MIC) was 0.25 µg/mL (≈ 0.312 µM), the MIC ([8]; Staphylococcus epidermidis, 222, read-out: MIC) was 0.12 µg/mL (≈ 0.15 µM) and the MIC ([9]; Staphylococcus epidermidis, EPI1) was 0.25 µg/mL (≈ 0.312 µM). It also gave an MIC [29] of 1 µg/mL (≈ 1.25 µM), an MIC ([11]; read-out: MIC) of 1 µg/mL (≈ 1.25 µM) and an MIC ([12]; Streptococcus pyogenes, C203) of 0.25 µg/mL (≈ 0.312 µM). It also gave an MIC ([13]; Staphylococcus aureus, S13E) of 0.25 µg/mL (≈ 0.312 µM), an MIC ([14]; Streptococcus pneumoniae) of 0.5 µg/mL (≈ 0.623 µM) and an MIC ([15]; Bordetella bronchiseptica, read-out: MIC) greater than 50 µg/mL. For the same compound, the MIC ([16]; Mycoplasmoides gallisepticum, 15E) was 50 µg/mL (≈ 62.3 µM), the MIC ([17]; Mycoplasmoides gallisepticum, 29C) was 0.39 µg/mL (≈ 0.486 µM) and the MIC ([18]; Mycoplasmoides gallisepticum, 36H) was 25 µg/mL (≈ 31.2 µM). It also gave an MIC ([19]; Mesomycoplasma hyopneumoniae, S5972) of 6.25 µg/mL (≈ 7.79 µM), an MIC ([20]; Pasteurella, 22C) of 50 µg/mL (≈ 62.3 µM) and an MIC ([21]; Pasteurella, 23C) of 50 µg/mL (≈ 62.3 µM). It also gave an MIC ([22]; Pasteurella, 41D) of 50 µg/mL (≈ 62.3 µM), an MIC ([23]; Pasteurella multocida, 17E) of 25 µg/mL (≈ 31.2 µM) and an MIC ([24]; Pasteurella multocida, 22A) of 50 µg/mL (≈ 62.3 µM). It also gave an MIC ([25]; Pasteurella multocida, 40G) of 25 µg/mL (≈ 31.2 µM), an MIC ([26]; Pasteurella multocida, 60A) of 25 µg/mL (≈ 31.2 µM) and an MIC ([27]; Pasteurella multocida, 68C) of 12.5 µg/mL (≈ 15.6 µM). The MIC ([28]; Staphylococcus aureus, 19C) was 1.56 µg/mL (≈ 1.95 µM), the MIC (Streptococcus sp. 19F; Streptococcus, SP.19F) was 0.78 µg/mL (≈ 0.973 µM) and the ED50 ([30]; C203, Oral) was 77.7 mg/kg. The ED50 ([30]; C203, sc, Subcutaneous) was greater than 10 mg/kg.
